The text below walks through data of patent publication US6211215A, “Heterocyclic compounds, their production and use” (Takeda Chemical Industries, Ltd., priority 1996, dated 2001).

Experiment [1] deals with T1, HER2 (Homo sapiens, UniProt P04626). Nature of the experiment: Inhibition of phosphorylation of receptor tyrosine in human breast cancer cells (2), MCF-7, heregulin-stimulated. More on the design: Human breast cancer cell line MCF-7 was used; endogenous in cells; host or cells: MCF-7. Particulars: heregulin control = 100%, read-out: Phosphorylation of receptor tyrosine residue (%); for activity at 0.4 µM: MCF7, 0.4 μM; for activity at 1.6 µM: MCF7, 1.6 μM; for activity at 6.3 µM: MCF7, 6.3 μM; for activity at 25 µM: MCF7, 25 μM. Type of experiment: cell-based. The method, then: Human breast cancer cell line MCF-7 was used. 1,000 μl of the cell suspension (250,000 cells) was seeded in each well of the 24-well plates. The culture were incubated at 37° C. in a 5% carbon dioxide gas incubator. On the next day, 100 μl of the 10-fold serial dilution of each compound solution was added to each well and, 2 hours later, 0.5 μg/ml of heregulin was added to it. After 5 minutes the extract solution was added to it to terminate the reaction, and the protein fraction was extracted. The protein was fractionated by the protein electrophoresis. The protein in the electrophoretic gel was transferred to a nylon filter. The filter was allowed to react with the phosphorylated tyrosine-specific antibody. The reaction product was fluorescence-labeled to expose a photofilm. The intensity of the exposure on the photofilm was quantitated by an image-analyzing apparatus. The proportion of the phosphorylation of HER2 tyrosine in the cells added with a compound solution of each concentration was calculated designating the phosphorylation of HER2 tyrosine in the heregulin-added cells as 100%.
Target sequence in this assay (P04626 23-1255): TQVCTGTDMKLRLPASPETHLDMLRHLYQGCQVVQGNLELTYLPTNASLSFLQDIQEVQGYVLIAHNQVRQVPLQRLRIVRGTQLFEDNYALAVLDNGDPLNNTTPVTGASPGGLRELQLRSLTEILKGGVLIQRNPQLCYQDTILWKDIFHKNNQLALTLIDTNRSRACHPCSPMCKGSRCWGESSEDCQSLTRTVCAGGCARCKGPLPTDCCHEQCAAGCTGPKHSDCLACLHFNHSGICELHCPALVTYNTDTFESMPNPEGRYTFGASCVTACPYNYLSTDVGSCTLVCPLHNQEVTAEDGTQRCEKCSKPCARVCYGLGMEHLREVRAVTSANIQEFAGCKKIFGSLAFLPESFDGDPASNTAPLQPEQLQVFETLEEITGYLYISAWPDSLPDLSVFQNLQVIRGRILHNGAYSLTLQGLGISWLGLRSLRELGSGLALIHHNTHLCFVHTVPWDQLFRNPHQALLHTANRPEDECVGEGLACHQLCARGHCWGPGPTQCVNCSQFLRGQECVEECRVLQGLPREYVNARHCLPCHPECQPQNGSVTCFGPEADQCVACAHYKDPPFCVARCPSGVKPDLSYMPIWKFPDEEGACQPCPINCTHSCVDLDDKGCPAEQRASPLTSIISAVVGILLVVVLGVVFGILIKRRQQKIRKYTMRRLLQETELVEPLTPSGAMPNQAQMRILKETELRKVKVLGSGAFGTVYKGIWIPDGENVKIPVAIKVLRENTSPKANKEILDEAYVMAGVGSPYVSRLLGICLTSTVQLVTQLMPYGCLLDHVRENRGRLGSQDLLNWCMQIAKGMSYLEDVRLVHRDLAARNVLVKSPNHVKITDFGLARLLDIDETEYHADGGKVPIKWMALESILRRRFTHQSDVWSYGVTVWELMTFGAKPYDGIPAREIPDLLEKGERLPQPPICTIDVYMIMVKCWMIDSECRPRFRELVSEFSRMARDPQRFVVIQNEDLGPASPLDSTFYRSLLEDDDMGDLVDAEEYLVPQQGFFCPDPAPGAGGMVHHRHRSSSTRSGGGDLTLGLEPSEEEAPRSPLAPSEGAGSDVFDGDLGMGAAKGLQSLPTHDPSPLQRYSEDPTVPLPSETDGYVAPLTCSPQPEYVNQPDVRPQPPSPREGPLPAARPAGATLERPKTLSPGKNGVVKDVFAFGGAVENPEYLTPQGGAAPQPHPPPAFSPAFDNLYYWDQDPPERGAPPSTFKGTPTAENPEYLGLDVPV

For experiment [2], the system named is MDA-MB-453. Description: In vitro inhibition of cell proliferation (2). In kind it is cell-based. Particulars: Homo sapiens, 72 h; Breast cancer MDA-MB-453; 3 days; SRB. Here is the method:
(§1) 100 μl (containing 2,000 cells) of a cell suspension of human breast cancer cell line MDA-MB-453 was seeded in each well of the 96-well microtiter plates. The cultures were incubated at 37° C. in a 5% carbon dioxide gas incubator. On the next day, 100 μl of the 2-fold serial dilution of each compound solution was added to each well and the mixtures were cultured for 3 days. The solution containing the compound was removed and the cells were washed with water. To the cells was added a 0.4% (W/V) dye SRB (dissolved in 1% acetic acid) solution to fix and stain the cell protein (Skehan P. et al., Journal of the National Cancer Institute Vol.82, pp.1107-1112, 1990). The dye solution was removed and the fixed and stained cell protein was washed. The protein-bound dye was extracted with 200 μl of 10 mM Tris buffer. The optical density of the extracted dye was determined at the wavelength of 540 nm to estimate the quantity of the cells in terms of the protein quantity. Designating the protein quantity in the control to which no compound solution was added as 100%, the proportion of the residual protein quantity in each treated group was calculated, and IC50, which was concentration of the compound required to inhibit the residual protein quantity to 50% the quantity of the control, was calculated.

Experiment [3] relates to PC3. Description: Selective in vitro inhibition of breast cancer and prostate cancer cell growth. Type of experiment: cell-based. Particulars: Homo sapiens, PC-3, 72 h; Prostate cancer PC3; 3 days; SRB; read-out: IC50, inhibition of cell proliferation. The method, then:
(§2) 100 μl (containing 2,000 cells) of a cell suspension of various human cancer cell lines shown in [Table 7] was seeded in each well of the 96-well microtiter plates. The cells were incubated at 37° C. in a 5% carbon dioxide gas incubator. Next day, 100 μl of a 2 fold serial dilution of a compound solution was added to each well. The cultures were incubated for 3 days. The solution containing the compound was removed and the cells were washed with water. To the cells was added a 0.4% (V/W) dye SRB (dissolved in 1% acetic acid) solution to fix and stain the cell protein. The dye solution was removed and the fixed and stained cell protein was washed. The protein-bound dye was extracted with 200 μl of 10 mM Tris buffer. The optical density of the extracted dye was determined at the wavelength of 540 nm to estimate the quantity of the cells in terms of the protein quantity. Designating the protein quantity in the control to which no compound solution was added as 100%, the proportion of the residual protein quantity in each treated group was calculated, and IC50, which was the concentration of the compound required to inhibit the residual protein quantity to 50% the quantity of the control, was calculated.

The test system of experiment [4] is MDA-MB-453. Described as above. In kind it is cell-based. Particulars: Homo sapiens, 72 h; Breast cancer MDA-MB-453; 3 days; SRB; read-out: IC50, inhibition of cell proliferation. The method, then:
as §2

The subject of experiment [5] is MRC5. Described as above. In kind it is cell-based. Particulars: Homo sapiens, 72 h; Normal MRC5; 3 days; SRB; read-out: IC50, inhibition of cell proliferation. The method, then: as §2
For experiment [6], the system named is MCF-7. The description is as above. Type of experiment: cell-based. Particulars: Homo sapiens, MCF7, 72 h; Breast cancer MCF-7; 3 days; SRB; read-out: IC50, inhibition of cell proliferation. Here is the method:
as §2

Experiment [7] relates to LNCaP. Described as above. Particulars: Homo sapiens, 72 h; Prostate cancer LNCaP; 3 days; SRB; read-out: IC50, inhibition of cell proliferation. Type of experiment: cell-based. The method, then: as §2
The subject of experiment [8] is human squamous cell carcinoma MH-85. Particulars: Cancer Research, Vol.51, p.4430, 1991; cited from earlier work.
The test system of experiment [9] is human epidermal carcinoma cell line A431. Particulars: Journal of Antibiotics, Vol.39, p.170, 1986; cited from earlier work.
The subject of experiment [10] is human breast cancer cell line, MDA-MB-453. Nature of the experiment: In vivo mammary cancer inhibiting effect (2). More on the design: species or system female Balb/C strain athymic nude mice. Particulars: oral, gained tumor volume vs control. The method, then:
5,000,000 cells of human breast cancer cell line, MDA-MB-453, were suspended in a gelmatrix solution. The suspension was subcutaneously implanted at the breast in 7-week-old female Balb/C strain athymic nude mice (Friedman R. et al., Proceedings of the National Academy of Sciences of the U.S.A. Vol. 87, pp.6698-6702, 1990). Twelve days after the implantation, the diameters of tumors were determined. For the experiment were used 5 mice per group with similar tumor size. Compound 72 or 109 of the present invention was suspended in a 5% gum arabic solution (physiological saline) and administered orally twice daily in dose of 60 mg/kg or 90 mg/kg body weight for 10 days. On the day when the dosing was ended, the diameters of tumors were measured. Tumor volume was calculated by the following formula: volume of tumor=longest diameter×shortest diameter×shortest diameter×1/2. The growth rate of tumors was obtained as the proportion of the gained tumor volume which was substracted the initial volume from the final volume in the treated animals to the gained tumor volume which was substracted the initial volume from the final volume in the control animals. The body weights of mice administered with compounds of the present invention were measured during the experiment to observe no decrease.

Experiment [11] has as its system human prostatic cancer cell line, LNCaP. Description: In vivo inhibition of prostate cancer (1). On the set-up: species or system male Balb/C-strain athymic nude mice. Particulars: for Tumor growth rate (%): oral, gained tumor volume vs control; for Inhibition of implanted tumor growth: LNCaP, athymic nude mice. Here is the method: 5,000,000 cells of human prostatic cancer cell line, LNCaP, were suspended in a gelmatrix solution and implanted subcutaneously at the breast in 8-week old male Balb/C-strain athymic nude mice (Friedman R. et al., Proceedings of the National Academy of Sciences of the U.S.A. Vol. 87, pp.6698-6702, 1990). 42 days (in the case of compound 72) or 57 days (in the case of compound 109) after the implantation, the diameters of tumors were measured. Five mice per group with similar tumor size were used for the experiment. Compounds 72 or 109 of the present invention was suspended in a 5% gum arabic solution (physiological saline) and administered orally twice daily in a dose of 60 mg/kg and 90 mg/kg body weight for 10 days. After the completion of the dosing, the diameters of tumor were measured. The tumor volume was calculated by the following formula: volume of tumor=longest diameter×shortest diameter×shortest diameter×1/2. The growth rate of tumors was obtained as the proportion of the gained tumor volume which was subtracted the initial volume from the final volume in the treated animals to the gained tumor volume which was subtracted the initial volume from the final volume in the control animals. The body weights of mice administered with compounds of the present invention were measured during the experiment to observe no decrease.

For experiment [12], the system named is T-47D. Nature of the experiment: Selective in vitro inhibition of breast cancer and prostate cancer cell growth. In kind it is cell-based. Particulars: Homo sapiens, T47D, 72 h; Breast cancer T-47D; 3 days; SRB; read-out: IC50, inhibition of cell proliferation. The method, then: as §2
The target in experiment [13] is T1, HER2. Nature of the experiment: Inhibition of the activity of human growth factor receptor (HER2) tyrosine kinase. In kind it is biochemical. More on the design: the tyrosine kinase domain of the human HER2 gene was cloned; made in house; host or cells: insect cell line SF-21 (recombinant insect virus vector). Particulars: HER2 receptor type tyrosine kinase; ELISA with HER3 substrate; read-out: Concentration of inhibiting HER2 (IC50). From the text:
As enzyme standard, the tyrosine kinase domain of the human HER2 gene was cloned to prepare the recombinant gene of insect virus vector, with which the insect cell line SF-21 was infected to produce an enzyme protein (Guy P. M. et al., Journal of Biological Chemistry Vol. 267, pp.13851-13856, 1992). As substrate, the phosphorylated tyrosine domain of the HER3 protein was cloned to prepare the recombinant gene of plasmid vector with which Escherichia Coli strain JM109 was infected to give an enzyme protein (Sierke S. L. et al., Biochemistry Vol. 32, pp.10102-10108, 1993). The enzymatic reaction was performed by the enzyme-linked immunological method which consisted of fixing the substrate protein in wells of a 96-well microtiter plate, adding the enzyme into the wells and quantitating phosphorylated tyrosine, which was the reaction product, by use of the anti-phosphorylated tyrosine antibody (Cleaveland J. S. et al., Analytical Biochemistry Vol. 190, pp249-253, 1990).
Target sequence in this assay (P04626 720-987 limits assumed): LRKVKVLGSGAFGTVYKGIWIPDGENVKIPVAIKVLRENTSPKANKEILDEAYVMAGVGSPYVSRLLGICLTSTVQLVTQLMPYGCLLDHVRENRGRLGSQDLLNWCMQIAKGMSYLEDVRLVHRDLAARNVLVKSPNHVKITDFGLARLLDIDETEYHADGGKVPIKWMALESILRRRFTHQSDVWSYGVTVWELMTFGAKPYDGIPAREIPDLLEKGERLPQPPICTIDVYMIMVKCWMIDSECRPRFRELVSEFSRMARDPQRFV

Experiment [14] deals with MDA-MB-453. Nature of the experiment: In vitro inhibition of cell proliferation (1). Particulars: Homo sapiens, 72 h; Breast cancer MDA-MB-453; 3 days; SRB. Type of experiment: cell-based. The method, then:
as §1

Setting [15] is: 120 mg/kg/day, 60 mg/kg twice daily for 10 days.
The mark [16] stands for this setting: 180 mg/kg/day, 90 mg/kg twice daily for 10 days.

Each structure is given as a SMILES string.

In the case of `c1csc(-c2nc(COc3ccc(CCCn4ccnc4)cc3)cs2)c1` [Compound 94, 4-[4-[3-(1-imidazolyl)propyl]phenoxymethyl]-2-(2-thienyl)thiazole], the activity at 0.4 µM in experiment [1] amounted to 93%. Besides, in experiment [1], the activity at 1.6 µM was 86%. Also, in experiment [1], the activity at 6.3 µM was 45%. Also, the activity at 25 µM in experiment [1] turned out to be 25%. For the same molecule, the IC50 is 4.8 µM in experiment [2]; 15 µM in experiment [3]; 4.8 µM in experiment [4]; above 25 µM in [5]; 1.1 µM in [6]; 5.6 µM in experiment [7].

Consider `COc1cc2ncnc(Nc3cccc(Cl)c3)c2cc1OC` [tyrphostin], for which the “Antitumor activity in vivo” value in [8] was “has antitumor activity”.

With `O=CN/C=C/c1cc(O)ccc1O` [erbstatin], in experiment [9], the “Inhibition of proliferation” value is reported as “inhibits proliferation of human epidermal carcinoma cell line A431”.

Turning to `Cc1ccc(-c2nc(COc3ccc(CCCn4ccnc4)cc3)co2)s1` [Compound 109, 4-[4-[3-(1-imidazolyl)propyl]phenoxymethyl]-2-(5-methyl-2-thienyl)oxazole], the “Tumor growth rate (%)” value in experiment [10] (setting [15]) is recorded as 35%; in experiment [11] (setting [15]) it was 28%. In experiment [1], the activity at 0.4 µM was found to be 92%. The activity at 1.6 µM in experiment [1] was 89%. For the same molecule, the activity at 6.3 µM in experiment [1] turned out to be 43%. The activity at 25 µM in experiment [1] is 31%. Besides, the IC50 in experiment [2] is 2.5 µM; in experiment [3] it was 16 µM; in experiment [4] it was 2.5 µM; in experiment [5], above 25 µM; in experiment [6], 0.19 µM; in experiment [7], 11 µM. Also, the “Inhibition of implanted tumor growth” value in experiment [11] is recorded as “inhibiting tumor growth of hormone dependent prostate cancer LNCaP”.

Turning to `c1csc(-c2nc3cc(COc4ccc(CCCCn5ccnc5)cc4)ccc3o2)c1` [Compound 80, 5-[4-[4-(1-imidazolyl)butyl]phenoxymethyl]-2-(2-thienyl)benzoxazole], in experiment [1], the activity at 0.4 µM worked out at 46%. The activity at 1.6 µM in [1] was 40%. In addition, the activity at 6.3 µM in experiment [1] came out at 34%. The IC50 in [2] is 0.09 µM; in [3], 6.5 µM; in experiment [4] it was 0.09 µM; in [5], above 25 µM; in experiment [6] it was 0.01 µM; in experiment [7] it was 1.6 µM.

In the case of `c1csc(-c2nc(COc3ccc(CCCn4ccnc4)cc3)co2)c1` [Compound 72, 4-[4-[3-(1-imidazolyl)propyl]phenoxymethyl]-2-(2-thienyl)oxazole], the “Tumor growth rate (%)” value was determined as 84% in [10] (setting [15]), 71% in experiment [10] (setting [16]), 91% in experiment [11] (setting [15]) and 57% in [11] (setting [16]). The activity at 0.4 µM in experiment [1] was determined as 96%. In addition, the activity at 1.6 µM in experiment [1] is 48%. In experiment [1], the activity at 6.3 µM was 19%. For the same molecule, the activity at 25 µM in experiment [1] is 7%. Also, the IC50 in [2] was 1.7 µM; in [3], 9.5 µM; in experiment [4], 1.7 µM; in [12], 3.5 µM; in experiment [5], above 25 µM; in [6] it was 0.62 µM. For the same molecule, the IC50 in experiment [7] came to 7.9 µM. The “Inhibition of implanted tumor growth” value in [11] was “inhibiting tumor growth of hormone dependent prostate cancer LNCaP”.

Consider `C(=C\c1nc(COc2ccc(CCCCn3cncn3)cc2)co1)/c1ccccc1` [Compound 2, 1-[4-[4-[2-[(E)-2-phenylethenyl]-4-oxazolylmethoxy]phenyl]butyl]-1,2,4-triazole], for which the figures for the IC50 in experiment [13] and in experiment [14] were 67 µM and 0.66 µM, respectively.
